What was measured:
Format in all cases: cell-based
[1] = system: Ptch and Gli1 expression in human aortic smooth muscle cells (HASMC); experiment: Hh target gene (Ptch, Gli1) mRNA expression in HASMC by Q-RT-PCR; details: 48 hours of treatment
Protocol: (§1) Treatment of HASMC with Shh was examined to determine if Shh induces the expression of target genes, Ptch and Gli. […] This difference may be cell-type specific or may be due to heterogeneity in vascular smooth muscle cell populations and their differentiation state. Ptch and Gli1 mRNA expression was induced when using 3 μg/ml of rmShh after 48 hours of treatment (1.6 fold and 1.8 fold, respectively, compared to control vehicle-treated cells as assessed by Q-RT-PCR analysis). This is consistent with studies in which 3.5 μg/ml of Shh was used to activate rat vascular SMC. It is likely that local Shh concentrations may reach very high levels in the microenvironment of the vessel wall, since, as described herein, substantial immunostaining for Shh in atherosclerotic lesions was observed. Cells within the atherosclerotic lesion may also become more susceptible to Shh over time due to the inflammatory insults associated with that environment. […] Dose response and time course experiments can determine the extent and kinetics of Hh target gene expression in aortic SMC, as well as in other vascular cells, using techniques known to a person of ordinary skill.

[2] = system: Gli1 expression in mouse aortic smooth muscle cells (MASMC); experiment: Hh target gene (Gli1) expression in MASMC; details: 48 hours of treatment
Protocol: as §1

[3] = system: pluripotent mesenchymal cells derived from the bone marrow; experiment: Oxysterol-induced osteoblastic differentiation of pluripotent mesenchymal cells; details: hedgehog pathway inhibitor added to oxysterol-treated cells
Text: These mesenchymal cells, which serve as osteoprogenitors during skeletal development and bone remodeling, are induced to undergo osteoblastic differentiation when treated with osteoinductive oxysterols.

Compound: CC(C)CCC[C@](C)(O)[C@H]1CC[C@H]2[C@@H]3CC=C4C[C@@H](O)CC[C@]4(C)[C@H]3CC[C@@]21C [20(S)-hydroxycholesterol]
- increase in Gli1 expression [1]: 2 fold
- increase in Gli1 expression [2]: 2 fold

Compound: CC1=C2C[C@H]3[C@@H](CC=C4C[C@@H](O)CC[C@@]43C)[C@@H]2CC[C@]12O[C@@H]1C[C@H](C)CN[C@H]1[C@H]2C [cyclopamine]
- oxysterol-induced osteoblastic differentiation of cells [3]: completely inhibited
